# Data taken from patent US20150240220A1, “NOVEL UDP-GLYCOSYLTRANSFERASE DERIVED FROM GINSENG AND USE THEREOF” (KOREA ADVANCED INSTITUTE OF SCIENCE AND TECHNOLOGY, priority 2012, published 2015).
# How the values were obtained:
# PgUGT74A1 [1] = experiment: In vitro glycosyltransferase assay with purified recombinant PgUGT74A1; type: biochemical, Panax ginseng; conditions: ginsenoside 5 mM, UDP-glucose 50 mM, enzyme 30 μg, pH 7, 35° C., 12 hours
# Procedure: (§1) A glycosyltransferase assay was performed in a reaction buffer (10 mM PBS buffer, pH 7) containing the purified PgUGT74A1 or PgUGT94B1 (30 μg), a ginsenoside compound (5 mM) and UDP-glucose (50 mM). For this assay, 10 different types of ginsenosides including PPD (Protopanaxadiol), PPT (Protopanaxatriol), Compound K (C-K), ginsenoside Rg3, Rh2, F2, Rd, Rg2, Rh1 and F1 were used, and the structures of the ginsenosides are shown in FIG. 1.
# (§2) The reaction mixture was incubated at 35° C. for 12 hours, and then the products were analyzed by thin-layer chromatography (TLC) or high performance liquid chromatography (HPLC).
# (§3) TLC analysis was performed using a mobile phase (acetone:methanol:DDW=65:35:10 vol/vol) and a 60F254 silica gel plate (Merck, Germany). The resolved product on the TLC plate was detected by spraying the plate with 10% (vol/vol) sulfuric acid (H2SO4) and heating it at 110° C. for 5 minutes.
# (§4) HPLC analysis was performed using ODS (2) C18 column (Phenomenex, USA). Water and acetonitrile gradient application time; and a component ratio are as follows: at a flow rate of 1 ml per minute for 0 minute, 68% water and 32% acetonitrile; 8 minutes, 35% water and 65% acetonitrile; 12 minutes, 0% water and 100% acetonitrile; 20 minutes, 0% water and 100% acetonitrile; 20.1 minutes, 68% water and 32% acetonitrile; and 28 minutes, 68% water and 32% acetonitrile.
# (§5) Ginsenosides were detected by using a UV-detector (Younglin, Korea) at a wavelength of 203 nm.
# First, the recombinant PgUGT of Example 1, PgUGT74A1, was incubated with 10 different types of ginsenosides (PPD, C-K, Rh2, F2, Rg3, Rd, Rg2, Rh1, F1 and PPT) in the presence of UDP-glucose, and the products converted by the recombinant PgUGT were analyzed by TLC.
# PgUGT94B1 [2] = experiment: In vitro glycosyltransferase assay with purified recombinant PgUGT94B1; type: biochemical, Panax ginseng; conditions: ginsenoside 5 mM, UDP-glucose 50 mM, enzyme 30 μg, pH 7, 35° C., 12 hours
# Procedure: as §1, §2, §3, §4, §5
# First, the recombinant PgUGT of Example 1, PgUGT94B1, was incubated with 10 different types of ginsenosides (PPD, C-K, Rh2, F2, Rg3, Rd, Rg2, Rh1, F1 and PPT) in the presence of UDP-glucose, and then the products converted by the recombinant PgUGT were analyzed by TLC.
# PgUGT74A1 and PgUGT94B1 = experiment: In vitro glycosyltransferase assay with both PgUGT74A1 and PgUGT94B1 in a single reaction tube; type: biochemical, Panax ginseng; conditions: both enzymes in a single reaction tube, in the presence of UDP-Glc
# Procedure: PPD (upper panel) or C-K (lower panel) was incubated with both of PgUGT74A1 and PgUGT94B1 in the presence of UDP-Glc. Then the reaction mixture was analyzed by HPLC. […] Rg3 and Rd converted by the above two enzymes are marked as black triangles;
# as §1, §2
# HPLC analysis was performed using ODS (2) C18 column (Phenomenex, USA). […]
# Ginsenosides were detected by using a UV-detector (Younglin, Korea) at a wavelength of 203 nm. […]
# [3] = test system: PgPPDS (protopanaxadiol synthase); experiment: Quantitative RT-PCR of PgPPDS expression in ginseng leaves sprayed with MeJA; type: in vivo, Panax ginseng; conditions: 200 μM MeJA sprayed on leaves of 15-month-old ginseng everyday for 5 days, samples on 6th day; normalized to tubulin
# Procedure: (§6) Total RNA was isolated from the leaf or root of 15-month-old ginseng using a spectrum plant total RNA kit (Sigma-Aldrich). 200 μM methyl jasmonate (MeJA) was sprayed onto the leaves of ginseng everyday for a total of 5 days, and samples were collected on the 6th day. The 1 μg of total RNA was used for cDNA synthesis.
# (§7) Expression levels of different genes were examined by a quantitative RT-PCR using the primer sets listed in the following Table 2, and the results were normalized to the expression level of tubulin.
# (§8) The 15-month old ginseng grown in a growth chamber under LD conditions was collected, and MeJA was sprayed onto its leaves everyday for a total of 5 days. To analyze expression level of the ginsenoside biosynthetic genes, samples were collected on the 6th days. […] However, expression of PgPPTS was not induced by MeJA under the conditions of the present invention.
# PgUGT94B1 [4] = experiment: Quantitative RT-PCR of PgUGT94B1 expression in ginseng leaves sprayed with MeJA; type: in vivo, Panax ginseng; conditions: 200 μM MeJA sprayed on leaves of 15-month-old ginseng everyday for 5 days, samples on 6th day; normalized to tubulin
# Procedure: as §6, §7, §8
# PgUGT74A1 [5] = experiment: Quantitative RT-PCR of PgUGT74A1 expression in ginseng leaves sprayed with MeJA; type: in vivo, Panax ginseng; conditions: 200 μM MeJA sprayed on leaves of 15-month-old ginseng everyday for 5 days, samples on 6th day; normalized to tubulin
# Procedure: as §6, §7, §8
# [6] = test system: PgPPTS (protopanaxatriol synthase); experiment: Quantitative RT-PCR of PgPPTS expression in ginseng leaves sprayed with MeJA; type: in vivo, Panax ginseng; conditions: 200 μM MeJA sprayed on leaves of 15-month-old ginseng everyday for 5 days, samples on 6th day; normalized to tubulin
# Procedure: as §6, §7, §8
# ginseng = experiment: Concentrations of 4 major ginsenosides after spraying MeJA onto the leaf of ginseng; type: in vivo, Panax ginseng; conditions: MeJA sprayed onto the leaf of ginseng; versus untreated
# Procedure: as §6
# In this regard, the concentrations of 4 major ginsenosides were measured after spraying MeJA onto the leaf of ginseng. The treatment of MeJA increased the concentrations of two PPD-type ginsenosides, Rd and Rb1, by 1.55 and 1.14 times respectively (FIG. 6c). In addition, the treatment of MeJA increased the concentrations of two PPT-type ginsenosides, Rg1 and Re, by 2.61 and 1.45 times respectively.
# [7] = test system: PgDS (dammarenediol-II synthase); experiment: Quantitative RT-PCR of PgDS expression in ginseng leaves sprayed with MeJA; type: in vivo, Panax ginseng; conditions: 200 μM MeJA sprayed on leaves of 15-month-old ginseng everyday for 5 days, samples on 6th day; normalized to tubulin
# Procedure: as §6, §7, §8
SMILES,conversion of the ginsenoside by PgUGT74A1 (HPLC analysis) (PgUGT74A1 [1]),conversion of the ginsenoside by PgUGT94B1 (HPLC analysis) (PgUGT94B1 [2]),conversion of the ginsenoside by PgUGT94B1 (TLC analysis) (PgUGT94B1 [2]),conversion of the ginsenoside by PgUGT74A1 (TLC analysis) (PgUGT74A1 [1]),conversion of the ginsenoside by PgUGT74A1 and PgUGT94B1 together (HPLC analysis) (PgUGT74A1 and PgUGT94B1),other results
CC(C)=CCC[C@](C)(O)[C@H]1CC[C@]2(C)[C@@H]1[C@H](O)C[C@@H]1[C@@]3(C)CC[C@H](O[C@@H]4O[C@H](CO)[C@@H](O)[C@H](O)[C@H]4O)C(C)(C)[C@@H]3CC[C@]12C [ginsenoside Rh2],did not convert ginsenoside Rh2 and F2,converted ginsenoside Rh2 and F2 into ginsenoside Rg3 and Rd respectively,converted ginsenoside Rh2 and ginsenoside F2 into ginsenoside Rg3 and ginsenoside Rd respectively,–,–,–
CC(C)=CCC[C@](C)(O[C@@H]1O[C@H](CO)[C@@H](O)[C@H](O)[C@H]1O)[C@H]1CC[C@]2(C)[C@@H]1[C@H](O)C[C@@H]1[C@@]3(C)CC[C@H](O[C@@H]4O[C@H](CO)[C@@H](O)[C@H](O)[C@H]4O)C(C)(C)[C@@H]3CC[C@]12C [ginsenoside F2],did not convert ginsenoside Rh2 and F2,converted ginsenoside Rh2 and F2 into ginsenoside Rg3 and Rd respectively,converted ginsenoside Rh2 and ginsenoside F2 into ginsenoside Rg3 and ginsenoside Rd respectively,–,–,–
"CC(C)=CCCC(C)(O)[C@H]1CC[C@]2(C)[C@@H]1[C@H](O)C[C@@H]1[C@@]3(C)CC[C@H](O)C(C)(C)[C@@H]3CC[C@]12C (stereo in doubt) [PPD, Protopanaxadiol]",converted PPD and C-K into ginsenoside Rh2 and F2 respectively,did not convert PPD and C-K into other ginsenosides,–,converted PPD and C-K into ginsenoside Rh2 and ginsenoside F2 respectively,successfully converted into Rg3,–
"CC(C)=CCC[C@](C)(O[C@@H]1O[C@H](CO)[C@@H](O)[C@H](O)[C@H]1O)[C@H]1CC[C@]2(C)[C@@H]1[C@H](O)C[C@@H]1[C@@]3(C)CC[C@H](O)C(C)(C)[C@@H]3CC[C@]12C [C-K, Compound K]",converted PPD and C-K into ginsenoside Rh2 and F2 respectively,did not convert PPD and C-K into other ginsenosides,–,converted PPD and C-K into ginsenoside Rh2 and ginsenoside F2 respectively,successfully converted into Rd,–
"CC/C=C\C[C@H]1C(=O)CC[C@@H]1CC(=O)OC [MeJA, Methyl(1R,2R)-3-Oxo-2-(2Z)-2-pentenyl-cyclopentaneacetate]",–,–,–,–,–,expression of PgPPDS after MeJA treatment [3]: enhanced the expression; expression level of PgUGT94B1 after MeJA treatment (PgUGT94B1 [4]): higher expression level; expression level of PgUGT74A1 after MeJA treatment (PgUGT74A1 [5]): higher expression level; expression of PgPPTS after MeJA treatment [6]: not induced; increase of the concentration of PPD-type ginsenoside Rb1 by MeJA treatment (ginseng): 1.14 times; increase of the concentration of PPD-type ginsenoside Rd by MeJA treatment (ginseng): 1.55 times; increase of the concentration of PPT-type ginsenoside Re by MeJA treatment (ginseng): 1.45 times; increase of the concentration of PPT-type ginsenoside Rg1 by MeJA treatment (ginseng): 2.61 times; expression of PgDS after MeJA treatment [7]: enhanced the expression
